Laboratory results as given in US8987314B2, “Amide, urea or sulfone amide linked benzothiazole inhibitors of endothelial lipase” (Bristol-Myers Squibb Company, priority 2012, dated 2015).

How the values were obtained:
Endothelial lipase (EL) = Endothelial lipase (EL) (Homo sapiens (Human), UniProt Q9Y5X9); assay: EL assay: endothelial lipase activity with fluorescent substrate A10070 in DMPG vesicles; type: biochemical
How it was run: (§1)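 EL from conditioned medium of HT-1080 cells engineered to overexpress endogenous EL; HL partially purified from conditioned medium of HL-overexpressing COS cells. Enzyme preincubated with compound 30 min at 37° C in 50 mM HEPES pH 8.0, 50 mM NaCl, 1 mM CaCl2; DMPG vesicles carrying FRET substrate (0.11 mole fraction) then added.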

hepatic lipase (HL) = hepatic lipase (HL) (Homo sapiens (Human), UniProt P11150); assay: HL assay: hepatic lipase activity with fluorescent substrate A10070 in DMPG vesicles; type: biochemical
hepatic lipase (HL), sequence (P11150 23-499, species assumed): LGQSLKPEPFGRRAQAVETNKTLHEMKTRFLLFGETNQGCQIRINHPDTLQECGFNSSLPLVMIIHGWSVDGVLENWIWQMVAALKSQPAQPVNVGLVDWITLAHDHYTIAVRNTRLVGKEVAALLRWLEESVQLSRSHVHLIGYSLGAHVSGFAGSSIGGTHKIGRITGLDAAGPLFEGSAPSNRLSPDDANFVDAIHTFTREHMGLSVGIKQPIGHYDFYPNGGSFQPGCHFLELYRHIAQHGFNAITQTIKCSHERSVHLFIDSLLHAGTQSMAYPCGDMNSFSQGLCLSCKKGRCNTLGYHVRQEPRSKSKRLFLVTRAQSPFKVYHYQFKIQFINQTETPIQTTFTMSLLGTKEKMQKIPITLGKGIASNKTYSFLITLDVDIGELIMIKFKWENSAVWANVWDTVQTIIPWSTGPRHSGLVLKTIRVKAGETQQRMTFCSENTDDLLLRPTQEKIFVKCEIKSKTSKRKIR
How it was run: as §1

Endothelial lipase (EL), sequence (Q9Y5X9 21-500): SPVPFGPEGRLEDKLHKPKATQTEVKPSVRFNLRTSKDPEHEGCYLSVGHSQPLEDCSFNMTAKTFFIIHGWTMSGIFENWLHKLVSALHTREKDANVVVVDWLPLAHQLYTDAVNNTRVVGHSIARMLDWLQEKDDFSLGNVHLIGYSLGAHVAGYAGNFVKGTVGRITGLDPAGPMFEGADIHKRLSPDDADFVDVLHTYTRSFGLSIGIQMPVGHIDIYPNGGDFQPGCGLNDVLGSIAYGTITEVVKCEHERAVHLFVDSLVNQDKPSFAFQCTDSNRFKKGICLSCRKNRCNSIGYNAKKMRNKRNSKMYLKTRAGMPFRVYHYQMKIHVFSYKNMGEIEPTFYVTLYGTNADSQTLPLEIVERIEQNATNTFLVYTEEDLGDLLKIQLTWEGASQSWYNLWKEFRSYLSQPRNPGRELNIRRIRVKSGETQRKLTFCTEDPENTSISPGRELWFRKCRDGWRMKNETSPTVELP

IC50 (Endothelial lipase (EL)) | IC50 (hepatic lipase (HL)) | SMILES
14.6 nM | 79.5 nM | CN(C)C(=O)c1cccc(-c2ccc3nc(C(C(=O)NCCS(N)(=O)=O)S(=O)(=O)CCC(F)(F)F)sc3c2)c1 (centres unmarked) [Example B340, N,N-dimethyl-3-(2-{[(2-sulfamoylethyl)carba-moyl](3,3,3-trifluoropro-panesulfonyl)methyl}-1,3-benzothiazol-6-yl)benzamide]
13.5 nM | 38.1 nM | NS(=O)(=O)CCNC(=O)C(c1nc2ccc(-c3cccc(C(=O)N4CCC(F)(F)CC4)c3)cc2s1)S(=O)(=O)CCC(F)(F)F (centres unmarked) [Example B343, 2-{6-[3-(4,4-difluoro-piperidine-1-carbon-yl)phenyl]-1,3-benzothiazol-2-yl}-N-(2-sulfamoyl-ethyl)-2-(3,3,3-trifluoro-propanesulfonyl)acetamide]
13.1 nM | 22.2 nM | NS(=O)(=O)CCNC(=O)C(c1nc2ccc(-c3cccc(C(=O)N4CC[C@H](O)C4)c3)cc2s1)S(=O)(=O)CCC(F)(F)F (some centres unmarked) [Example B344]
5.3 nM | 400 nM | Cc1cc2nc(C(C(=O)NCCS(N)(=O)=O)S(=O)(=O)Cc3ccccc3)sc2cc1-c1ccc(C(=O)N2CCOCC2)cc1 (centres unmarked) [Example B346, 2-{5-methyl-6-[4-(morpholine-4-carbon-yl)phenyl]-1,3-benzothiazol-2-yl}-2-phenylmethane-sulfonyl-N-(2-sulfamoylethyl)acetamide]
2.3 nM | 347 nM | Cc1cc2nc(C(C(=O)NCCS(N)(=O)=O)S(C)(=O)=O)sc2cc1-c1ccc(C(=O)N2CC(C)(O)C2)cc1 (centres unmarked) [Example B349, 2-{6-[4-(3-hydroxy-3-methylazetidine-1-carbonyl)phenyl]-5-methyl-1,3-benzothiazol-2-yl}-2-methanesulfonyl-N-(2-sulfamoylethyl)a-cetamide]
0.8 nM | 13.7 nM | CS(=O)(=O)C(C(=O)NCCS(N)(=O)=O)c1nc2cc(-c3ccccc3F)ccc2s1 (centres unmarked) [Example B352, 2-[5-(2-fluorophenyl)-1,3-benzothiazol-2-yl]-2-methanesulfonyl-N-(2-sulfamoylethyl)acetamide]
2 nM | 18.5 nM | CC1(O)CN(C(=O)c2ccc(-c3ccc4nc(C(C(=O)NCCS(N)(=O)=O)S(=O)(=O)Cc5ccc(F)cc5)sc4c3)cc2)C1 (centres unmarked) [Example B353, 2-[(4-fluorophenyl)meth-anesulfonyl]-2-{6-[4-(3-hydroxy-3-methylazetidine-1-carbonyl)phcnyl]-1,3-benzothiazol-2-yl}-N-(2-sulfamoylethyl)acetamide]
3.8 nM | 553 nM | CO[C@@H]1CCN(C(=O)c2ccc(-c3ccc4nc(C(C(=O)NCCS(N)(=O)=O)S(=O)(=O)Cc5ccc(OC(F)(F)F)cc5)sc4c3)cc2)C1 (stereo partly drawn) [Example B354, 2-(6-{4-[(3R)-3-methoxy-pyrrolidine-1-carbonyl]phen-yl}-1,3-benzothiazol-2-yl)-N-(2-sulfamoyl-ethyl)-2-{[4-(trifluoro-methoxy)phenyl]methane-sulfonyl}acetamide]
2.7 nM | 26.7 nM | CO[C@H]1CCN(C(=O)c2ccc(-c3ccc4nc(C(C(=O)NCCS(N)(=O)=O)S(=O)(=O)Cc5ccc(OC(F)(F)F)cc5)sc4c3)cc2)C1 (stereo partly drawn) [Example B356, 2-(6-{4-[(3S)-3-methoxy-pyrrolidine-1-carbonyl]phen-yl}-1,3-benzothiazol-2-yl)-N-(2-sulfamoyl-ethyl)-2-{[4-(trifluoro-methoxy)phenyl]methane-sulfonyl}acetamide]
3.7 nM | 67.6 nM | NS(=O)(=O)CCNC(=O)C(c1nc2ccc(-c3ccc4c(c3)CNC4=O)cc2s1)S(=O)(=O)Cc1ccc(C(F)(F)F)cc1 (centres unmarked) [Example B358, 2-[6-(1-oxo-2,3-dihydro-1H-isoindol-5-yl)-1,3-benzothiazol-2-yl]-N-(2-sulfamoylethyl)-2-{[4-(trifluoromethyl)phen-yl]methanesulfonyl}a-cetamide]
4.7 nM | 47 nM | NS(=O)(=O)CCNC(=O)C(c1nc2ccc(-c3ccc(C(=O)N4CC(F)(F)C4)cc3)cc2s1)S(=O)(=O)Cc1cccc(C(F)(F)F)c1 (centres unmarked) [Example B359, 2-{6-[4-(3,3-difluoro-azetidine-1-carbonyl)phen-yl]-1,3-benzothiazol-2-yl}-N-(2-sulfamoyl-ethyl)-2-{[3-(trifluoromethyl)phen-yl]methanesulfonyl}a-cetamide]
121 nM | 1230 nM | Cn1cc(-c2ccc3nc(C(C(=O)NCCS(N)(=O)=O)S(=O)(=O)Cc4ccc(C(F)(F)F)cc4)sc3c2)ccc1=O (centres unmarked) [Example B361]
11.6 nM | 10000 nM | CC(C)(O)Cn1ccc(-c2ccc3nc(C(C(=O)NCCS(N)(=O)=O)S(=O)(=O)Cc4ccc(F)cc4)sc3c2)cc1=O (centres unmarked) [Example B363, 2-[(4-fluorophenyl)meth-anesulfonyl]-2-{6-[1-(2-hydroxy-2-methylpropyl)-2-oxo-1,2-dihydropyridin-4-yl]-1,3-benzothiazol-2-yl}-N-(2-sulfamoylethyl)acetamide]

The next lines start with the compound.

SMILES | IC50 (Endothelial lipase (EL)) | IC50 (hepatic lipase (HL))
CC(F)(F)CNC(=O)c1cccc(-c2ccc3nc(C(C(=O)NCCS(N)(=O)=O)S(=O)(=O)CCC(F)(F)F)sc3c2)c1 (centres unmarked) [Example B339, N-(2,2-difluoropropyl)-3-(2-{[(2-sulfamoylethyl)car-bamoyl](3,3,3-trifluoropropanesulfon-yl)methyl}-1,3-benzothiazol-6-yl)benzamide] | 9.7 nM | 49.2 nM
CC1(O)CCN(C(=O)c2cccc(-c3ccc4nc(C(C(=O)NCCS(N)(=O)=O)S(=O)(=O)CCC(F)(F)F)sc4c3)c2)CC1 (centres unmarked) [Example B341, 2-{6-[3-(4-hydroxy-4-methylpiperidine-1-carbonyl)phenyl]-1,3-benzothiazol-2-yl}-N-(2-sulfamoylethyl)-2-(3,3,3-trifluoropropanesulfon-yl)acetamide] | 6 nM | 112 nM
NS(=O)(=O)CCNC(=O)C(c1nc2ccc(-c3cccc(C(=O)N4CC[C@@H](O)C4)c3)cc2s1)S(=O)(=O)CCC(F)(F)F (stereo partly drawn) [Example B342, 2-(6-{3-[(3R)-3-hydroxy-pyrrolidine-1-carbon-yl]phenyl}-1,3-benzothiazol-2-yl)-N-(2-sulfamoyl-ethyl)-2-(3,3,3-trifluoro-propanesulfonyl)acetamide] | 9.5 nM | 154 nM
CC(C)(O)CNC(=O)c1cccc(-c2ccc3nc(C(C(=O)NCCS(N)(=O)=O)S(=O)(=O)CCC(F)(F)F)sc3c2)c1 (centres unmarked) [Example B345, N-(2-hydroxy-2-methyl-propyl)-3-(2-{[(2-sulfamoylethyl)carba-moyl](3,3,3-tnfluoropro-panesulfonyl)methyl}-1,3-benzothiazol-6-yl)benzamide] | 1 nM | 213 nM
Cc1cc2nc(C(C(=O)NCCS(N)(=O)=O)S(=O)(=O)Cc3ccccc3)sc2cc1-c1ccc(C(=O)N2CC(C)(O)C2)cc1 (centres unmarked) [Example B347, 2-{6-[4-(3-hydroxy-3-methylazetidine-1-carbonyl)phenyl]-5-methyl-1,3-benzothiazol-2-yl}-2-phenylmethane-sulfonyl-N-(2-sulfamoylethyl)acetamide] | 3.4 nM | 580 nM
Cc1cc2nc(C(C(=O)NCCS(N)(=O)=O)S(=O)(=O)Cc3ccccc3)sc2cc1-c1ccc(C(=O)N2CCCCC2)cc1 (centres unmarked) [Example B348, 2-{5-methyl-6-[4-(piperidine-1-carbonyl)phen-yl]-1,3-benzothiazol-2-yl}-2-phenylmethane-sulfonyl-N-(2-sulfamoylethyl)acetamide] | 1 nM | 37.1 nM
Cc1cc2nc(C(C(=O)NCCS(N)(=O)=O)S(C)(=O)=O)sc2cc1-c1ccc(C(=O)N2CCOCC2)cc1 (centres unmarked) [Example B350, 2-methanesulfonyl-2-{5-methyl-6-[4-(morpholine-4-carbonyl)phenyl]-1,3-benzothiazol-2-yl}-N-(2-sulfamoylethyl)acetamide] | 3.2 nM | 90.5 nM
NS(=O)(=O)CCNC(=O)C(c1nc2ccc(-c3ccc(C(=O)N4CCCCC4)cc3)cc2s1)S(=O)(=O)Cc1ccccc1 (centres unmarked) [Example B351, 2-phenylmethanesulfonyl-2-{6-[4-(piperidine-1-carbonyl)phenyl]-1,3-benzothiazol-2-yl}-N-(2-sulfamoylethyl)acetamide] | 6.2 nM | 14.9 nM
NS(=O)(=O)CCNC(=O)C(c1nc2ccc(-c3ccc(C(=O)N4CC(F)C4)cc3)cc2s1)S(=O)(=O)Cc1ccc(OC(F)(F)F)cc1 (centres unmarked) [Example B355, 2-{6-[4-(3-fluoroazetidine-1-carbonyl)phenyl]-1,3-benzothiazol-2-yl}-N-(2-sulfamoylethyl)-2-{[4-(trifluoromethoxy)phen-yl]methanesulfonyl}a-cetamide] | 6.6 nM | 235 nM
NS(=O)(=O)CCNC(=O)C(c1nc2ccc(-c3ccc(C(=O)N4CC(F)(F)C4)cc3)cc2s1)S(=O)(=O)Cc1ccc(C(F)(F)F)cc1 (centres unmarked) [Example B357, 2-{6-[4-(3,3-difluoro-azetidine-1-carbonyl)phen-yl]-1,3-benzothiazol-2-yl}-N-(2-sulfamoyl-ethyl)-2-{[4-(trifluoromethyl)phen-yl]methanesulfonyl}a-cetamide] | 15 nM | 93.2 nM
CC1(O)CN(C(=O)c2ccc(-c3ccc4nc(C(C(=O)NCCS(N)(=O)=O)S(=O)(=O)Cc5cccc(C(F)(F)F)c5)sc4c3)cc2)C1 (centres unmarked) [Example B360, 2-{6-[4-(3-hydroxy-3-methylazetidine-1-carbonyl)phenyl]-1,3-benzothiazol-2-yl}-N-(2-sulfamoylethyl)-2-{[3-(trifluoromethyl)phen-yl]methanesulfonyl}a-cetamide] | 6.2 nM | 471 nM
CC1(O)CN(C(=O)c2ccc(-c3ccc4nc(C(C(N)=O)S(=O)(=O)Cc5ccc(OC(F)(F)F)cc5)sc4c3)cc2)C1 (centres unmarked) [Example B362, 2-{6-[4-(3-hydroxy-3-methylazetidine-1-carbonyl)phenyl]-1,3-benzothiazol-2-yl}-2-{[4-(trifluoromethoxy)phen-yl]methanesulfonyl}a-cetamide] | 158 nM | 30.3 nM
